Here are results for 35 compounds from patent publication US7384965B2, “Fused heterocyclic derivatives as PPAR modulators” (Eli Lilly and Company, priority 2003, dated 2008).

`CCc1cc(OCc2ccc3nc(-c4ccc(C(F)(F)F)cc4)sc3c2)ccc1CCC(=O)O` [Example 61, 3-{2-Ethyl-4-[2-(4-trifluoromethylphenyl)benzothiazol-6-ylmethoxy]phenyl}propionic Acid] displayed a melting point of 203 to 205 °C.

Consider `Cc1cc(SCc2cccc3[nH]c(-c4ccc(C(F)(F)F)cc4)cc23)ccc1OCC(=O)O` [Example 93, 2-Methyl-4-[2-(4-trifluoromethylphenyl)-1H-indol-4-ylmethylsulfanyl]phenoxyacetic Acid], for which the melting point lay in the range of 85 to 88 °C.

Compound `Cc1cc(SCc2cccc3nc(-c4ccc(C(F)(F)F)cc4)sc23)ccc1OCC(=O)O` [Example 44, 2-Methyl-4-[2-(4-trifluoromethylphenyl)benzothiazol-7-ylmethylsulfanyl]phenoxyacetic Acid] came in with a melting point of 193 to 196 °C.

On to `CCc1cc(SCc2ccnc3[nH]c(-c4ccc(C(F)(F)F)cc4)nc23)ccc1OCC(=O)O` [Example 105, 2-Ethyl-4-[2-(4-trifluoromethylphenyl)-3H-imidazo[4,5-b]pyridin-7-ylmethylsulfanyl]phenoxyacetic Acid], for which the melting point is 188 to 190 °C. `Cc1cc(SCc2cccc3oc(-c4ccc(C(F)(F)F)cc4)nc23)ccc1CCC(=O)O` [Example 66, 3-2-Methyl-4-[2-(4-trifluoromethylphenyl)benzooxazol-4-ylmethylsulfanyl]phenylpropionic Acid]: the melting point is 181 to 183 °C.

`CCc1cc(SC(C)(C)c2cccc3nc(-c4ccc(C(F)(F)F)cc4)oc23)ccc1OCC(=O)O` [Example 77, 2-Ethyl-4-{1-methyl-1-[2-(4-trifluoromethylphenyl)benzooxazol-7-yl]ethylsulfanyl}phenoxyacetic Acid] gave a melting point of 122 to 125 °C. As to `CCc1cc(SCc2cccc3oc(-c4ccc(C(F)(F)F)cc4)nc23)ccc1OCC(=O)O` [Example 67, 2-Ethyl-4-[2-(4-trifluoromethylphenyl)benzooxazol-4-ylmethylsulfanyl]phenoxyacetic Acid], the melting point was in the range of 127 to 128 °C. With `Cc1cc(SC(C)(C)c2cccc3nc(-c4ccc(C(F)(F)F)cc4)oc23)ccc1OCC(=O)O` [Example 75, 2-Methyl-4-{1-methyl-1-[2-(4-trifluoromethylphenyl)benzooxazol-7-yl]ethylsulfanyl}phenoxyacetic Acid], the melting point fell in the range of 131 to 133 °C. The figure for `O=C(O)Cc1csc2cc(SCc3ccnc4oc(-c5ccc(C(F)(F)F)cc5)nc34)ccc12` [Example 98, 6-[2-(4-Trifluoromethylphenyl)oxazolo[5,4-b]pyridine-7-ylmethylsulfanyl]benzo[b]thiophen-3-ylacetic Acid] is 203 to 205 °C; for `O=C(O)Cc1cccc(SCc2cccc3sc(-c4ccc(C(F)(F)F)cc4)nc23)c1` [Example 41] it is 140 to 143 °C; for `CCc1cc(SCc2ccnc3oc(-c4ccc(C(F)(F)F)cc4)nc23)ccc1OCC(=O)O` [Example 97, 2-Ethyl-4-[2-(4-trifluoromethylphenyl)oxazolo[5,4-b]pyridin-7-ylmethylsulfanyl]phenoxyacetic Acid] it is 59 to 62 °C. `O=C(O)Cc1csc2cc(SCc3cccc4nc(-c5ccc(C(F)(F)F)cc5)sc34)ccc12` [Example 47, 6-[2-(4-Trifluoromethylphenyl)benzothiazol-7-ylmethylsulfanyl]benzo[b]thiophen-3-ylacetic Acid] registered a melting point of 201 to 204 °C. The figure for `Cc1cc(SCCc2ccc3sc(-c4ccc(C(F)(F)F)cc4)nc3c2)ccc1CCC(=O)O` [Example 56, 3-(2-Methyl-4-{2-[2-(4-trifluoromethylphenyl)benzothiazol-5-yl]ethylsulfanyl}phenyl)propionic Acid] is 108 to 110 °C.

Compound `Cc1cc(SCc2ccnc3sc(-c4ccc(C(F)(F)F)cc4)nc23)ccc1OCC(=O)O` [Example 100, 2-Methyl-4-[2-(4-trifluoromethylphenyl)thiazolo[5,4-b]pyridine-7-ylmethylsulfanyl]phenoxyacetic Acid] had a melting point of 82 to 85 °C. Consider `O=C(O)Cc1csc2cc(SCc3cccc4sc(-c5ccc(C(F)(F)F)cc5)nc34)ccc12` [Example 43], for which the melting point lay in the range of 168 to 170 °C.

As for `CCc1cc(SCc2cccc3nc(-c4ccc(C(F)(F)F)cc4)sc23)ccc1OCC(=O)O` [Example 45, 2-Ethyl-4-[2-(4-trifluoromethylphenyl)benzothiazol-7-ylmethylsulfanyl]phenoxyacetic Acid], the melting point fell in the range of 160 to 164 °C. Compound `Cc1cc(SCc2ccnc3[nH]c(-c4ccc(C(F)(F)F)cc4)nc23)ccc1CCC(=O)O` [Example 104, 3-{2-Methyl-4-[2-(4-trifluoromethylphenyl)-3H-imidazo[4,5-b]pyridin-7-ylmethylsulfanyl]phenyl}propionic Acid] returned a melting point of 180 to 182 °C. The figure for `CCc1cc(SCc2ccc3sc(-c4ccc(C(F)(F)F)cc4)nc3c2)ccc1OCC(=O)O` [Example 53, 2-Ethyl-4-[2-(4-trifluoromethylphenyl)benzothiazol-5-ylmethylsulfanyl]phenoxyacetic Acid] is 140 to 142 °C; for `CCc1cc(OCc2ccc3sc(-c4ccc(C(F)(F)F)cc4)nc3c2)ccc1CCC(=O)O` [Example 55, 3-{2-Ethyl-4-[2-(4-trifluoromethylphenyl)benzothiazol-5-ylmethoxy]phenyl}propionic Acid] it is 188 to 190 °C; for `CCc1cc(SCc2cccc3[nH]c(-c4ccc(C(F)(F)F)cc4)cc23)ccc1OCC(=O)O` [Example 94, 2-Ethyl-4-[2-(4-trifluoromethylphenyl)-1H-indol-4-ylmethylsulfanyl]phenoxyacetic Acid] it is 174 to 176 °C. For `CCc1cc(SCc2cccc3nc(-c4ccc(C(F)(F)F)cc4)oc23)ccc1OCC(=O)O` [Example 72, 2-Ethyl-4-[2-(4-trifluoromethylphenyl)benzooxazol-7-ylmethylsulfanyl]phenoxyacetic Acid], the melting point lay within 170 to 173 °C. The compound `CCc1cc(SCc2cccc3c2nc(-c2ccc(C(F)(F)F)cc2)n3C)ccc1OCC(=O)O` [Example 91, 2-Ethyl-4-[1-methyl-2-(4-trifluoromethylphenyl)-1H-benzoimidazol-4-ylmethylsulfanyl]phenoxyacetic Acid] registered a melting point of 178 to 180 °C. With `Cc1cc(SC(C)c2cccc3nc(-c4ccc(C(F)(F)F)cc4)oc23)ccc1CCC(=O)O` (racemic) [Example 80, (+/−)-3-(2-Methyl-4-{1-[2-(4-trifluoromethylphenyl)benzooxazol-7-yl]ethylsulfanyl}phenyl)propionic Acid], the melting point lay in the range of 128 to 130 °C.

Consider `Cc1cc(SCc2cccc3[nH]c(-c4ccc(C(F)(F)F)cc4)nc23)ccc1OCC(=O)O` [Example 85, 2-Methyl-4-[2-(4-trifluoromethylphenyl)-1H-benzoimidazol-4-ylmethylsulfanyl]phenoxyacetic Acid], for which the melting point was 238 to 240 °C (dec.). Compound `O=C(O)Cc1cccc(SCc2ccnc3oc(-c4ccc(C(F)(F)F)cc4)nc23)c1` [Example 99, 3-[2-(4-Trifluoromethylphenyl)oxazolo[5,4-b]pyridin-7-ylmethylsulfanyl]phenylacetic Acid] came in with a melting point of 164 to 166 °C. Compound `Cc1cc(OCc2ccc3nc(-c4ccc(C(F)(F)F)cc4)sc3c2)ccc1CCC(=O)O` [Example 60, 3-{2-Methyl-4-[2-(4-trifluoromethylphenyl)benzothiazol-6-ylmethoxy]phenyl}propionic Acid] registered a melting point of 198 to 200 °C. In turn, `Cc1cc(SCc2ccnc3[nH]c(-c4ccc(C(F)(F)F)cc4)nc23)ccc1OCC(=O)O` [Example 103, 2-Methyl-4-[2-(4-trifluoromethylphenyl)-3H-imidazo[4,5-b]pyridin-7-ylmethylsulfanyl]phenoxyacetic Acid] had a melting point of 239 to 241 °C. For the compound `Cc1cc(SCCc2cccc3sc(-c4ccc(C(F)(F)F)cc4)nc23)ccc1CCC(=O)O` [Example 49, 3-(2-Methyl-4-{2-[2-(4-trifluoromethylphenyl)benzothiazol-4-yl]ethylsulfanyl}phenyl)propionic Acid], the melting point lay within 118 to 120 °C. On to `CCc1cc(SCc2cccc3sc(-c4ccc(C(F)(F)F)cc4)nc23)ccc1OCC(=O)O` [Example 40], for which the melting point lay within 89 to 92 °C. The compound `Cc1cc(SC(C)c2cccc3nc(-c4ccc(C(F)(F)F)cc4)oc23)ccc1OCC(=O)O` (racemic) [Example 79, (+/−)-2-Methyl-4-{1-[2-(4-trifluoromethylphenyl)benzooxazol-7-yl]ethylsulfanyl}phenoxyacetic Acid] gave a melting point of 134 to 138 °C.

The compound `CCc1cc(SCc2ccc3nc(-c4ccc(C(F)(F)F)cc4)sc3c2)ccc1OCC(=O)O` [Example 59, 2-Ethyl-4-[2-(4-trifluoromethylphenyl)benzothiazol-6-ylmethylsulfanyl]phenoxyacetic Acid] displayed a melting point of 144 to 147 °C. In turn, `Cn1c(-c2ccc(C(F)(F)F)cc2)nc2c(CSc3cccc(CC(=O)O)c3)cccc21` [Example 92, 3-[1-Methyl-2-(4-trifluoromethylphenyl)-1H-benzoimidazol-4-ylmethylsulfanyl]phenylacetic Acid] yielded a melting point of 178 to 180 °C. The figure for `O=C(O)Cc1csc2cc(OCc3cccc4nc(-c5ccc(C(F)(F)F)cc5)oc34)ccc12` [Example 70, 6-[2-(4-Trifluoromethylphenyl)benzooxazol-7-ylmethoxy]benzo[b]thiophen-3-ylacetic Acid] is 215 to 216 °C; for `O=C(O)Cc1cccc(SCc2cccc3[nH]c(-c4ccc(C(F)(F)F)cc4)nc23)c1` [Example 88, 3-[2-(4-Trifluoromethylphenyl)-1H-benzoimidazol-4-ylmethylsulfanyl]phenylacetic Acid] it is 180 to 183 °C. As for `CCc1cc(OC(C)c2cccc3nc(-c4ccc(C(F)(F)F)cc4)oc23)ccc1CCC(=O)O` (racemic) [Example 84, (+/−)-3-(2-Ethyl-4-{1-[2-(4-trifluoromethylphenyl)benzooxazol-7-yl]ethoxy}phenyl)propionic Acid], the melting point was in the range of 60 to 63 °C.

For orientation: melting point means the temperature, or range, at which the solid turns liquid.
